Patent US6232318A, “Pyrimidinedione derivatives useful as alpha 1A adrenoceptor antagonists” (Merck & Co., Ltd., priority 1999, dated 2001)

What was measured:
[1] = target: T1, human alpha 1a adrenergic receptor (Homo sapiens, UniProt P35348); test: Screening assay: alpha 1a adrenergic receptor binding ([125I]-HEAT competition, membranes of stably transfected cell line)
T1 sequence (P35348 1-466): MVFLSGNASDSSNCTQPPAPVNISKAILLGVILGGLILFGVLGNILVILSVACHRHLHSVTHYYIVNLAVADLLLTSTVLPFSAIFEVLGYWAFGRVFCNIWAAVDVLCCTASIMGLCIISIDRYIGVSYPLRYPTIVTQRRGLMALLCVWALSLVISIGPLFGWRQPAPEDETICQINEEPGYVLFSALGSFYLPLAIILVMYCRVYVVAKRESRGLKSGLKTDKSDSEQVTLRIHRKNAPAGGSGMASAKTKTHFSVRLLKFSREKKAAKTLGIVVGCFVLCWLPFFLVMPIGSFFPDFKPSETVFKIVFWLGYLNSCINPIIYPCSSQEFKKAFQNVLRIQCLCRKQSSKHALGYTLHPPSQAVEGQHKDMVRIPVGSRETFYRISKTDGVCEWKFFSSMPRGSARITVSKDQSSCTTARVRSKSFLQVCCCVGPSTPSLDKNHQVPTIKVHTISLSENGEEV
Protocol: Screening Assay: Alpha 1a Adrenergic Receptor Binding
Membranes prepared from the stably transfected human alpha 1a cell line (ATCC CRL 11140) were used to identify compounds that bind to the human alpha 1a adrenergic receptor. These competition binding reactions (total volume=200 μl) contained 50 mM Tris-HCl pH. 7.4, 5 mM EDTA, 150 mM NaCl, 100 pM [^125 I]-HEAT, membranes prepared from the alpha 1a cell line and increasing amounts of unlabeled ligand. Reactions were incubated at room temperature for one hour with shaking. Reactions were filtered onto Whatman GF/C glass fiber filters with a Inotec 96 well cell harvester. Filters were washed three times with ice cold buffer and bound radioactivity was determined (Ki).

[2] = tested on: human alpha 1d and alpha 1b adrenergic receptors; test: Selective binding assays: alpha 1d and alpha 1b membranes ([125I]-HEAT competition), compared with alpha 1a; details: alpha 1a vs alpha 1b and alpha 1d, ratio
Protocol: Membranes prepared from stably transfected human alpha 1d and alpha 1b cell lines (ATCC CRL 11138 and CRL 11139, respectively) were used to identify compounds that selectively bind to the human alpha 1a adrenergic receptor. These competition binding reactions (total volume=200 μl) contained 50 mM Tris-HCl pH. 7.4, 5 mM EDTA, 150 mM NaCl, 100 pM [^125 I]-HEAT, membranes prepared from cell lines transfected with the respective alpha 1 subtype expression plasmid and increasing amounts of unlabeled ligand. Reactions were incubated at room temperature for one hour with shaking. Reactions were filtered onto Whatman GF/C glass fiber filters with a Inotec 96 well cell harvester. Filters were washed three times with ice cold buffer and bound radioactivity was determined (Ki).

SMILES | Ki ([1]; room temperature, 1 h, pH 7.4) | selectivity in binding to alpha 1a receptors versus binding to alpha 1b and alpha 1d receptors [2] | Ki ([1]; value in mM)
Cc1cn(CCCN[C@H]2CC[C@](C#N)(c3ccccc3C#N)CC2)c(=O)n(Cc2ccccc2)c1=O [Example 26, trans-2-{4-[3-(3-Benzyl-5-methyl-2,4-dioxo-3,4-dihydro-2H-pyrimidin-1-yl)propylamino]-1-cyanocyclohexyl}benzonitrile] | 0.00079 mM | ≤ 10 fold | –
COc1ccccc1[C@H]1CC[C@H](NCCCn2c(=O)c(C)cn(Cc3ccccc3)c2=O)CC1 [Example 17, trans-1-Benzyl-3-{3-[4-(2-methoxyphenyl)cyclohexylamino]propyl}-5-methyl-1H-pyrimidine-2,4-dione] | – | ≤ 10 fold | –
Cc1c[nH]c(=O)n(CCCN[C@H]2CC[C@](C#N)(c3ccccc3)CC2)c1=O [Example 20, cis4-[3-(5-Methyl-2,6-dioxo-3,6-dihydro-2H-pyrimidin-1-yl)propylamino]-1-phenylcyclohexanecarbonitrile] | – | ≤ 10 fold | –
Cc1cn(Cc2ccccc2)c(=O)n(CCCN[C@H]2CC[C@](C#N)(c3ccc(F)cc3F)CC2)c1=O [Example 4, cis-4-[3-(3-Benzyl-5-methyl-2,6-dioxo-3,6-dihydro-2H-pyrimidin-1-yl)propylamino]-1-(2,4-difluorophenyl)cyclohexanecarbonitrile] | – | ≤ 10 fold | –
Cc1cn(Cc2ccccc2)c(=O)n(CCCN2CCC(c3ccc(F)cc3)CC2)c1=O [Example 1, 1-Benzyl-3-{3-[4-(4-fluorophenyl)piperidin-1-yl]propyl}-5-methyl-1H-pyrimidine-2,4-dione] | – | ≤ 10 fold | –
Cc1cn(Cc2ccccc2)c(=O)n(CCCN[C@H]2CC[C@@](C#N)(c3cc(F)cc(F)c3)CC2)c1=O [Example 9, cis-4-[3-(3-Benzyl-5-methyl-2,6-dioxo-3,6-dihydro-2H-pyrimidin-1-yl)propylamino]-1-(3,5-difluorophenyl)cyclohexanecarbonitrile] | – | ≤ 10 fold | 0.000115 mM
Cc1ccccc1C1(C#N)CCN(CCCn2c(=O)c(C)cn(Cc3ccccc3)c2=O)CC1 [Example 2, 1-[3-(3-Benzyl-5-methyl-2,6-dioxo-3,6-dihydro-2H-pyrimidin-1-yl)propyl]-4-ortho-tolylpiperidine-4-carbonitrile] | – | ≤ 10 fold | –
Cc1c[nH]c(=O)n(CCCN[C@H]2CC[C@@](C#N)(c3ccccc3)CC2)c1=O [Example 21, trans-4-[3-(5-Methyl-2,6-dioxo-3,6-dihydro-2H-pyrimidin-1-yl)propylamino]-1-phenylcyclohexanecarbonitrile] | 0.000755 mM | ≤ 10 fold | –
Cc1cn(Cc2ccccc2)c(=O)n(CCCN[C@H]2CC[C@@](C#N)(c3ccccc3)CC2)c1=O [Example 6, trans-4-[3-(3-Benzyl-5-methyl-2,6-dioxo-3,6-dihydro-2H-pyrimidin-1-yl)propylamino]-1-phenylcyclohexanecarbonitrile] | 0.0005 mM | ≤ 10 fold | –
